Test results reported in patent US20080089859A1, “ADMINISTRATION OF SLEEP RESTORATIVE AGENTS” (priority 2001, published 2008).

Legend:
[1] = system: rheumatoid arthritis (Ra) and Psoriatic arthritis (PsA) patients; experiment: Study of Example 1 continued to 18 months (Example 2); type: in vivo, human; conditions: 12 month to 18 month time point; on Etanercept
From the text: The study of Example 1 was continued to 18 months. […] Fibromyalgia was a surrogate for a lack of deep (e.g., stage IV) restorative sleep.
JC refers to the number of swollen tender joints.

[2] = system: patients with Behcet's Syndrome; experiment: Treatment of patients with Behcet's Syndrome; type: in vivo, human; conditions: for Discontinuation of prednisone: single patients, lorazepam 2 mg qhs (patient 1), pramipexole added to lorazepam (patient 2), clonazepam 2 mg qhs (patient 3)
Method: Three patients with Behcet's Syndrome were treated according to the present invention. For one patient, prednisone administration was supplemented with lorazepam at 2 mg qhs. […] For a second patient, lorazepam at 2 mg qhs was co-admnistered with Dapsone and prednisone.

[3] = system: patients with Palindromic Rheumatism; experiment: Treatment of patients with Palindromic Rheumatism; type: in vivo, human; conditions: five patients; clonazepam 2 mg, pramipexole 1-6 mg and/or lorazepam 2 mg qhs
Method: Five patient with Palindromic Rheumatism were treated according to the present invention. After adding clonazepam 2 mg, pramipexole 1-6 mg and/or lorazepam 2 mg qhs to their treatment, the patients reported that episodic severe pain decreased dramatically, by 90%.

[4] = system: patients having rheumatoid arthritis; experiment: Rheumatoid arthritis patients on Leflunamide given sleep restorative agents; type: in vivo, human; conditions: lorazepam, clonazepam and/or pramipexole
[5] = system: patients with Sjogren's Syndrome; experiment: Treatment of patients with dry eyes and mouth from Sjogren's Syndrome; type: in vivo, human; conditions: Lorazepam 1-2 mg po qhs, Pramipexole later 0.5-4.0 mg qhs
Method: Three patients with dry eyes and mouth from Sjogren's Syndrome, were treated with lorazepam or pramipexole. […] Lorazepam was administered at 1-2 mg po qhs. Pramipexole was later administered at 0.5-4.0 mg qhs.

[6] = system: patients with Ankylosing Spondylitis; experiment: Treatment of patients with Ankylosing Spondylitis; type: in vivo, human; conditions: six patients on Methotrexate, steroids 2-10 mg qd and Etanercept; lorazepam 1-2 mg qhs or pramipexole 0.5-3.0 mg qhs
Method: Six patients with Ankylosing Spondylitis were treated according to the present invention. […] The patients were administered lorazepam 1-2 mg qhs or pramipexole 0.5-3.0 mg qhs.

[7] = system: patients with Systemic Lupus Erythematosis; experiment: Treatment of patients with Systemic Lupus Erythematosis; type: in vivo, human; conditions: patient steroid-dependent at 20 mg qd on leflunamide; lorazepam 2 mg qhs added
Method: Patients with Systemic Lupus Erythematosis were treated according to the present invention.
The dose range of pramipexole ranged from 2-6 mg qhs.

[8] = system: patient with chronic gout; experiment: Treatment of a patient with chronic gout and severe synovitis; type: in vivo, human; conditions: for Prednisone dose reached: colchicine, hydroxychloroquine and Etanercept added together, before sleep agents
Method: Adding colchicine, hydroxychloroquine and Etanercept only allowed them to decrease prednisone to 15 mg qd.

patient with pseudogout = experiment: Treatment of a patient with pseudogout; type: in vivo, human; conditions: one patient on colchicine; lorazepam 2 mg qhs added for sleep
[9] = system: patients with Multiple Sclerosis (MS)
Method: Eight patients with Multiple Sclerosis (MS) were treated according to the present invention.

[10] = system: patients having rheumatoid arthritis; experiment: Rheumatoid arthritis patients on Infliximab given sleep restorative agents; type: in vivo, human; conditions: lorazepam 1-2 mg qhs or pramipexole

## O=C1CN=C(c2ccccc2Cl)c2cc([N+](=O)[O-])ccc2N1 [Clonazepam]
[1]
  Response of improved patients after adding the agent to their treatment: did much better from the 12 month time point to the 18 month time point
[2]; second patient (pramipexole added to lorazepam), third patient (clonazepam 2 mg qhs)
  Symptoms observed in the patient: less fatigue and no further mouth ulcers were observed
[2]
  Discontinuation of prednisone: able to discontinue prednisone 10 mg qd
[3]
  Decrease of episodic severe pain: 90%
  Other medications stopped: off narcotics, steroids, Etanercept, Infliximab, leflunamide, Azothioprine, sulfasalazine, hydroxychloroquine and colchicine
[4]
  Leflunamide efficacy: increased Leflunamide efficacy

## O=C1Nc2ccc(Cl)cc2C(c2ccccc2Cl)=NC1O (stereo not shown) [Lorazepam]
[1]
  Response of improved patients after adding the agent to their treatment: did much better from the 12 month time point to the 18 month time point
[5]; 3 patients on Hydroxychloroquine 200 mg po bid, nearly complete resolution in third patient
  Resolution of dryness (eyes and mouth): Complete resolution of the dryness in 2 of 3 patients
[5]; 3 patients
  Hydroxychloroquine sparing: One daily dose of Hydroxychloroquine was discontinued and benefit maintained
[2]; second patient, lorazepam 2 mg qhs with Dapsone and prednisone
  Discontinuation of Dapsone: Dapsone could be discontinued without further seizures
[2]
  Discontinuation of prednisone: able to d/c prednisone in two months
[6]
  Discontinuation of Methotrexate and steroids: All six patients were able to discontinue Methotrexate and steroids
[7]
  Prednisone dose reached: 15 mg qhs
[3]
  Decrease of episodic severe pain: 90%
  Other medications stopped: off narcotics, steroids, Etanercept, Infliximab, leflunamide, Azothioprine, sulfasalazine, hydroxychloroquine and colchicine
[8]; one patient, pramipexole and lorazepam added together
  Discontinuation of other medications: allowed the patient to discontinue steroids, colchicine, hydroxychoroquine, and narcotics
Patient with pseudogout
  Flares: no flares for three years
[9]; one patient flaring uncontrollably, Lorazepam 2 mg qhs
  Sleep and fibromyalgia: still exhibited poor sleep and fibromyalgia
[9]; three patients, pramipexole and/or lorazepam added
  MS activity: MS was quiet for over three years
[4]
  Leflunamide efficacy: increased Leflunamide efficacy
[10]
  Infliximab efficacy: increased efficacy of Infliximab

## C[C@]12C=CC(=O)C=C1CC[C@@H]1[C@@H]2C(=O)C[C@@]2(C)[C@H]1CC[C@]2(O)C(=O)CO [prednisone]
[8]; prednisone 10-40 mg qd for two months
  Control of severe synovitis: uncontrolled

## CCN(CCO)CCCC(C)Nc1ccnc2cc(Cl)ccc12 (stereo not shown) [hydroxychloroquine]
[8]; one patient
  Prednisone dose reached: 15 mg qd

## COc1cc2c(c(OC)c1OC)-c1ccc(OC)c(=O)cc1[C@@H](NC(C)=O)CC2 [colchicine]
[8]; one patient
  Prednisone dose reached: 15 mg qd
Patient with pseudogout
  Flares: flare ups were previously uncontrolled
